According to PMC4291220 (PLoS ONE, 2015):

What was measured:
CLIC1 [1] = target: T1, CLIC1 (Homo sapiens, UniProt O00299); test: HEDS assay, GR-coupled; type: biochemical; design: full length, His-tag (pET28a) cut with thrombin; E. coli BL21(DE3); reduced monomer by SEC; conditions: 5 uM CLIC1, 1 mM HEDS, 1 mM GSH, pH 7, 37 °C; mode and site not determined
CLIC1 [2] = target: CLIC1 (Homo sapiens, UniProt O00299, C59A); conditions: 1 mM GSH, 250 uM NADPH, 50 nM GR, pH 7, 37 °C; HEDS range printed as 0-6 mM, so printed unit uM is doubtful
CLIC1 [3] = target: T1, CLIC1; conditions: 1 mM GSH, 250 uM NADPH, 50 nM GR, pH 7, 37 °C; reduced monomer; HEDS range printed as 0-6 mM, so printed unit uM is doubtful
CLIC2 = target: T2, CLIC2 (Homo sapiens, UniProt O15247); test: HEDS assay, GR-coupled NADPH oxidation at A340; type: biochemical; conditions: 5 uM protein, 1 mM HEDS, 1 mM GSH, pH 7, 37 °C
T2 construct: full length, N-terminal GST tag (pGEX-2T) cut with thrombin; E. coli BL21(DE3)
T2 sequence (O15247 whole entry): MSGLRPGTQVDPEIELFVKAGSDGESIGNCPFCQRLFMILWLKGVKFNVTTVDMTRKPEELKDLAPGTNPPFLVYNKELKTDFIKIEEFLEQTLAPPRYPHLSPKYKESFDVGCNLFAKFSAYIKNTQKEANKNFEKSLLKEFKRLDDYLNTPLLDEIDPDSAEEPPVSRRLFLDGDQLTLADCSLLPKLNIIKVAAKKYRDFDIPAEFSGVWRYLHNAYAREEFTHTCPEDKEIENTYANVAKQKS

CLIC4 [4] = target: T3, CLIC4 (Homo sapiens, UniProt Q9Y696); test: HEDS assay, GR-coupled NADPH oxidation at A340; type: biochemical; conditions: 5 uM protein, 1 mM HEDS, 1 mM GSH, pH 7, 37 °C
T3 sequence (Q9Y696 2-253): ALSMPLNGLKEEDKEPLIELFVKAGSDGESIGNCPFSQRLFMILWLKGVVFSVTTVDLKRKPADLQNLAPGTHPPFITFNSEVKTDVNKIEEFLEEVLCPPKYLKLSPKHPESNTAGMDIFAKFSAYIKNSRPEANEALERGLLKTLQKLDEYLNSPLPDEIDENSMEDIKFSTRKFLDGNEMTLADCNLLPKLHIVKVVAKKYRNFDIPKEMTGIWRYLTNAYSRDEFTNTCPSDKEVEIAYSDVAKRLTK

CLIC4 [5] = target: T3, CLIC4; test: DHAR assay, GR-coupled NADPH oxidation at A340; type: biochemical; conditions: 5 uM protein, 1 mM DHA, 2 mM GSH, pH 7.5, 30 °C
O=[Se](O)O = test: purified protein; conditions: 50 uM GSH, 200 uM NADPH, 50 nM GR, pH 7.5, 20 °C, reduced monomer, selenite 0-16 uM

In the case of `CC1(C2CCCC2)Cc2cc(OCC(=O)O)c(Cl)c(Cl)c2C1=O` (centres unmarked) [IAA-94], the “complete inhibition at 10 uM” value (CLIC1 [1]) is reported as “both IAA-94 and A9C completely blocked the enzymatic activity of CLIC1”.
For `O=C(O)c1c2ccccc2cc2ccccc12` [A9C], the “complete inhibition at 10 uM” value (CLIC1 [1]) was “both IAA-94 and A9C completely blocked the enzymatic activity of CLIC1”.
In the case of `OCCSSCCO` [2-hydroxyethyl disulfide], the Km (CLIC1 [2]) is reported as 1.25 ± 0.65 µM, the Km (CLIC1 [3]) is reported as 1.28 ± 0.65 µM and the “HEDS assay, GR-coupled NADPH oxidation at A340” value (CLIC2) is reported as “all three proteins reduced the HEDS substrate when coupled with glutathione (GSH)”. The “HEDS assay, GR-coupled NADPH oxidation at A340” value (CLIC4 [4]) was “all three proteins reduced the HEDS substrate when coupled with glutathione (GSH)”.
`O=C1O[C@H]([C@@H](O)CO)C(=O)C1=O` [dehydroascorbic acid] was tested, and the “DHAR assay, GR-coupled NADPH oxidation at A340” value (CLIC4 [5]) was “NADPH consumption increased in the presence of CLIC1 or CLIC4”.
CLIC1 (Homo sapiens) gave a Km (O=[Se](O)O) of 4.81 ± 3.00 µM.
